Target: T1, long form of human GPR120 (Homo sapiens, UniProt Q5NUL3)
T1 construct: host or cells: PathHunter CHO-K1 GPR120 β-Arrestin Cell Line
T1 sequence (Q5NUL3 1-377 isoform Q5NUL3-1): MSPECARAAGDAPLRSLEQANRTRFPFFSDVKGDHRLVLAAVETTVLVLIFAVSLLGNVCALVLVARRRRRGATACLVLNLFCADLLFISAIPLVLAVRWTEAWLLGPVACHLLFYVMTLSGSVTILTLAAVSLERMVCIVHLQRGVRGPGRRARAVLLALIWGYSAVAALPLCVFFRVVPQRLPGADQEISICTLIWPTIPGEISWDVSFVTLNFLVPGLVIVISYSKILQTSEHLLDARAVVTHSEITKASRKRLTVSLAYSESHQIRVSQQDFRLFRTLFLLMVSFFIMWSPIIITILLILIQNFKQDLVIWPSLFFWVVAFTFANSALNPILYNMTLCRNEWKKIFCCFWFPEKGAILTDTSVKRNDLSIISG
Assay: Human GPR120 DiscoveRx PathHunter Beta-Arrestin Assay, Procedure β-arrestin A (3000 cells per well)
Format: cell-based
Details: read-out: GPR120 B-arrestin A EC50
Text: The binding of an agonist (medium/long chain fatty acids or small molecule agonists) to the G-protein-coupled receptor GPR120 activates phospholipase C, leading to release of intracellular Ca^+2 through the generation of inositol 1,4,5-trisphosphate (InsP3 or IP3). GPR120 activation can also trigger intracellular signaling via recruitment of β-Arrestin. In the present method, agonist-induced activation of the human GPR120 receptor is monitored through the use of PathHunter CHO-K1 GPR120 β-Arrestin Cell Line engineered by DiscoveRx, as detailed below. The cell lines are designed to co-express both the ProLink/Enzyme Donor (PK)-tagged GPCR and the Enzyme Activator (EA)-tagged β-Arrestin fusion proteins. Upon GPR120 receptor stimulation/activation, the EA-tagged β-Arrestin portion is translocated to the tagged receptor, where the two enzyme fragments are brought within close proximity. Under these conditions, these fragments can interact and form an active Beta-gal enzyme complex through Enzyme Fragment Complementation (EFC). This active Beta-gal complex can enzymatically hydrolyse the substrate to produce a detectable light signal; therefore, activation as a function of agonist concentration can be expressed as an EC50 value to determine relative compound activities. This in vitro assay therefore serves to assess compound agonist activity of the GPR120.
In Procedure β-arrestin A, the cell used were PathHunter CHO-K1 GPR120 β-Arrestin Cell Line, expressing the long form of human GPR120 (Genbank accession number NM_181745), with 3000 cells per well.
The selected CHO-K1 GPR120 β-Arrestin cells were cultured in Ham's F12 media supplemented with 10% fetal bovine serum (FBS), 1% Glutamine, 1×p/s, 800 μg/ml G418 and 300 μg/ml Hygromycin B (for selection). Cell stocks were maintained and grown in a sub-confluent state using standard cell culture procedures. The day before the experiment, the cells were harvested with non-enzymatic cell dissociation buffer and re-suspended in complete growth media at the desired concentration. A Corning 384-plate was then seeded with the proper number of cells in a volume of 25 μL, per well. The seeded plates were incubated overnight at 37° C.
On the day of the experiment, the Assay Buffer containing (a) HBSS with Ca^++ and Mg^++, (b) 20 mM HEPES, and (c) 0.1% BSA stabilizer (pH 7.4) was prepared. The growth medium was gently removed from the cell plates and 20 μL of Assay Buffer added to each well. The plate was then incubated at 37° C. for 60 mins. Test compounds were serially diluted in Assay Buffer to desired concentrations (more particularly, to one or more of the following μM concentrations: 25 μM, 12.5 μM, 6.25 μM, 3.125 μM, 1.562 μM, 0.781 μM, 0.391 μM, 0.195 μM, 0.098 μM, 0.049 μM, 0.024 μM, 0.012 μM). Five μl of compound dilution was then added to each well and the plate incubated at 37° C. for 90 mins. The detection reagents were prepared according to the manufacture's instruction. Twelve μL of the detection reagents were added to each well and the plate incubated at room temperature for 60 mins.
The plates were read on an EnVision instrument, using Protocol name: Luminescence, Plate type: 384 Costar, Measurement height: 3 mm, Measurement time: 1 s, Aperture: 384 Plate aperture. The % activity relative to the positive control was calculated using the following equation:
The % Activity values were plotted versus the concentration of test compound and fitted to a sigmoidal dose-response curve with a Hill slope=1 (fixed value) using nonlinear regression with GraphPad Prism 5.0 to calculate the EC50 values. The Fitting Equation was: Y=Bottom+(Top−Bottom)/(1+10^((LogEC50−X)*HillSlope)), where X is the log of the concentration and Y is the response.

Structure (SMILES)	EC50
CCc1cc2cc(Cl)cc(COc3ccc(CCC(=O)O)c4c3CCC4)c2o1 [Compound 54, 3-{7-[(5-Chloro-2-ethyl-1-benzofuran-7-yl)methoxy]-2,3-dihydro-1H-inden-4-yl}propanoic acid]	0.429 µM
Cc1cc2cc(OC(F)F)cc(COc3ccc(CCC(=O)O)c(C)c3C)c2o1 [Compound 76, 3-(4-{[5-(Difluoromethoxy)-2-methyl-1-benzofuran-7-yl]methoxy}-2,3-dimethylphenyl)propanoic acid]	0.144 µM
CCCc1cc2cc(Cl)cc(COc3ccc(CCC(=O)O)c(C)c3C)c2o1 [Compound 31, 3-{4-[(5-Chloro-2-propyl-1-benzofuran-7-yl)methoxy]-2,3-dimethylphenyl}propanoic acid]	0.232 µM
Cc1c(CCC(=O)O)ccc(OCc2cc(OC(F)(F)F)cc3cc(CC(F)F)oc23)c1C [Compound 96, 3-(4-{[2-(2,2-Difluoroethyl)-5-(trifluoromethoxy)-1-benzofuran-7-yl]methoxy}-2,3-dimethylphenyl)propanoic acid]	0.148 µM
CCc1cc2ccc(OC(F)F)c(COc3ccc(CCC(=O)O)c(C)c3C)c2o1 [Compound 70, 3-(4-{[6-(Difluoromethoxy)-2-ethyl-1-benzofuran-7-yl]methoxy}-2,3-dimethylphenyl)propanoic acid]	2.5 µM
CCc1cc2cc(Cl)c(OC(C)C)c(COc3ccc(CCC(=O)O)c(C)c3C)c2o1 [Compound 65, 3-(4-{[5-Chloro-2-ethyl-6-(1-methylethoxy)-1-benzofuran-7-yl]methoxy}-2,3-dimethylphenyl)propanoic acid]	0.24 µM
Cc1cc2c(COc3ccc(CCC(=O)O)c(C)c3C)cc(Cl)cc2o1 [Compound 81, 3-{4-[(6-Chloro-2-methyl-1-benzofuran-4-yl)methoxy]-2,3-dimethylphenyl}propanoic acid]	0.817 µM
Cc1oc2cccc(COc3ccc(CCC(=O)O)c(C)c3C)c2c1C [Compound 60, 3-{4-[(2,3-Dimethyl-1-benzofuran-4-yl)methoxy]-2,3-dimethylphenyl}propanoic acid]	0.706 µM
CCc1cc2cc(Cl)c(OCCOC)c(COc3ccc(CCC(=O)O)c(C)c3C)c2o1 [Compound 63, 3-(4-{[5-Chloro-2-ethyl-6-(2-methoxyethoxy)-1-benzofuran-7-yl]methoxy}-2,3-dimethylphenyl)propanoic acid]	0.231 µM
CCCc1cc2cc(Cl)cc(COc3ccc(CCC(=O)O)c(F)c3F)c2o1 [Compound 59, 3-{4-[(5-Chloro-2-propyl-1-benzofuran-7-yl)methoxy]-2,3-difluorophenyl}propanoic acid]	0.146 µM
CCc1cc2cc(OC(F)F)cc(COc3ccc(CCC(=O)O)c(C)c3C)c2o1 [Compound 57, 3-(4-{[5-(Difluoromethoxy)-2-ethyl-1-benzofuran-7-yl]methoxy}-2,3-dimethylphenyl)propanoic acid]	0.077 µM
CCc1cc2cc(Br)cc(COc3ccc(CCC(=O)O)c(C)c3C)c2o1 [Compound 45, 3-{4-[(5-Bromo-2-ethyl-1-benzofuran-7-yl)methoxy]-2,3-dimethylphenyl}propanoic acid]	0.095 µM
CCCc1cc2cc(I)cc(COc3ccc(CCC(=O)O)c(C)c3C)c2o1 [Compound 47, 3-{4-[(5-Iodo-2-propyl-1-benzofuran-7-yl)methoxy]-2,3-dimethylphenyl}propanoic acid]	0.197 µM
CC#Cc1cc(COc2ccc(CCC(=O)O)c(C)c2C)c2oc(CCC)cc2c1 [Compound 58, 3-{2,3-Dimethyl-4-[(2-propyl-5-prop-1-yn-1-yl-1-benzofuran-7-yl)methoxy]phenyl}propanoic acid]	0.41 µM
COCc1cc2cc(F)cc(COc3ccc(CCC(=O)O)c(C)c3C)c2o1 [Compound 21, 3-(4-{[5-Fluoro-2-(methoxymethyl)-1-benzofuran-7-yl]methoxy}-2,3-dimethylphenyl)propanoic acid]	0.458 µM
Cc1c(CCC(=O)O)ccc(OCc2cc(F)cc3cc(C(F)F)oc23)c1C [Compound 32, 3-(4-{[2-(Difluoromethyl)-5-fluoro-1-benzofuran-7-yl]methoxy}-2,3-dimethylphenyl)propanoic acid]	2.91 µM
Cc1cc2c(F)c(OC(F)(F)F)c(F)c(COc3ccc(CCC(=O)O)c(F)c3F)c2o1 [Compound 75, 3-(4-{[4,6-Difluoro-2-methyl-5-(trifluoromethoxy)-1-benzofuran-7-yl]methoxy}-2,3-difluorophenyl)propanoic acid]	0.394 µM
CCCc1cc(OCc2cc(OC(F)(F)F)cc3cc(CC)oc23)c(F)cc1CCC(=O)O [Compound 50, 3-(4-{[2-Ethyl-5-(trifluoromethoxy)-1-benzofuran-7-yl]methoxy}-5-fluoro-2-propylphenyl)propanoic acid]	0.496 µM
Cc1cc2cc3c(c(COc4ccc(CCC(=O)O)c(C)c4C)c2o1)OCCO3 [Compound 90, 3-{2,3-Dimethyl-4-[(7-methyl-2,3-dihydrofuro[2,3-g][1,4]benzodioxin-5-yl)methoxy]phenyl}propanoic acid]	0.532 µM
CCCc1cc2cc(OC(F)F)cc(COc3ccc(CCC(=O)O)c(C)c3C)c2o1 [Compound 77, 3-(4-{[5-(Difluoromethoxy)-2-propyl-1-benzofuran-7-yl]methoxy}-2,3-dimethylphenyl)propanoic acid]	0.176 µM
Cc1c(CCC(=O)O)ccc(OCc2cc(F)cc3cc(C4CCCC4)oc23)c1C [Compound 18, 3-{4-[(2-Cyclopentyl-5-fluoro-1-benzofuran-7-yl)methoxy]-2,3-dimethylphenyl}propanoic acid]	1.67 µM
Cc1c(CCC(=O)O)ccc(OCc2cc(F)cc3cc(C#N)oc23)c1C [Compound 49, 3-{4-[(2-Cyano-5-fluoro-1-benzofuran-7-yl)methoxy]-2,3-dimethylphenyl}propanoic acid]	0.507 µM
CCCc1cc2cc(OC(F)(F)F)cc(COc3ccc(CCC(=O)O)c(C)c3C)c2o1 [Compound 35, 3-(2,3-Dimethyl-4-{[2-propyl-5-(trifluoromethoxy)-1-benzofuran-7-yl]methoxy}phenyl)propanoic acid]	0.19 µM
CCc1cc2cc(Cl)c(OCC(F)(F)F)c(COc3ccc(CCC(=O)O)c(C)c3C)c2o1 [Compound 64, 3-(4-{[5-Chloro-2-ethyl-6-(2,2,2-trifluoroethoxy)-1-benzofuran-7-yl]methoxy}-2,3-dimethylphenyl)propanoic acid]	0.271 µM
CCCc1cc2cc(Cl)cc(COc3ccc(CCC(=O)O)c(C)c3C#N)c2o1 [Compound 41, 3-{4-[(5-Chloro-2-propyl-1-benzofuran-7-yl)methoxy]-3-cyano-2-methylphenyl}propanoic acid]	0.626 µM
Cc1oc2c(COc3ccc(CCC(=O)O)c(C)c3C)cc(F)cc2c1F [Compound 5, 3-{4-[(3,5-Difluoro-2-methyl-1-benzofuran-7-yl)methoxy]-2,3-dimethylphenyl}propanoic acid]	0.949 µM
Cc1c(CCC(=O)O)ccc(OCc2cc(Cl)cc3cn(C)nc23)c1C [Compound 8, 3-{4-[(5-Chloro-2-methyl-2H-indazol-7-yl)methoxy]-2,3-dimethylphenyl}propanoic acid]	0.613 µM
